ChEMBL document CHEMBL1123731, “Synthesis and antiarrhythmic properties of novel 3-selena-7-azabicyclo[3.3.1]nonanes and derivatives. Single-crystal X-ray diffraction analysis of 7-benzyl-3-selena-7-azabicyclo[3.3.1]nonan-9-one and 7-benzyl-3-selena-7-azabicyclo[3.3.1]nonane hydroperchlorate” (1987)
Several values for one entry are separate records, joined by “and”; a condition that tells them apart may be missing. Equal entries are not always repeated. Activity calls are given as the source filed them. The rule behind the calls is not given here.

Tests used:
Canis familiaris [1] = assay: Tested for Sustained ventricular tachycardia in dogs at a dose of 6 mg/kg Expt-1; assay type: functional, Canis lupus familiaris, Cardiac ventricle
Canis familiaris [2] = assay: Tested for Norman sinus rhythm in dogs at a dose of 6 mg/kg Expt-2; assay type: functional, Canis lupus familiaris
Canis familiaris [3] = assay: Tested for mean blood pressure with ventricular tachycardia in dogs at a dose of 6 mg/kg Expt-1; assay type: functional, Canis lupus familiaris
Canis familiaris [4] = assay: Tested for mean blood pressure with ventricular tachycardia in dogs at a dose of 6 mg/kg Expt-2; assay type: functional, Canis lupus familiaris
Canis familiaris [5] = assay: Tested for Sustained ventricular tachycardia in dogs at a dose of 3 mg/kg Expt-1; assay type: functional, Canis lupus familiaris, Cardiac ventricle
Canis familiaris [6] = assay: Tested for mean blood pressure without ventricular tachycardia in dogs at a dose of 6 mg/kg Expt-1; assay type: functional, Canis lupus familiaris
Canis familiaris [7] = assay: Tested for mean blood pressure without ventricular tachycardia in dogs at a dose of 3 mg/kg Expt-1; assay type: functional, Canis lupus familiaris
Canis familiaris [8] = organism: Canis familiaris; assay: Relative effect on normal sinus rate in dogs; NC=no change; assay type: functional, organism-based; conditions: Canis lupus familiaris
Canis familiaris [9] = assay: Tested for mean blood pressure without ventricular tachycardia in dogs at a dose of 3 mg/kg Expt-2; assay type: functional, Canis lupus familiaris
Canis familiaris [10] = organism: Canis familiaris; assay: Relative effect on exacerbation of ventricular tachycardia in dogs; exacerbation of VT; assay type: functional, organism-based; conditions: Canis lupus familiaris; Cardiac ventricle
Canis familiaris [11] = assay: Tested for Sustained ventricular tachycardia in dogs at a dose of 6 mg/kg Expt-2; assay type: functional, Canis lupus familiaris, Cardiac ventricle
Canis familiaris [12] = organism: Canis familiaris; assay: Relative effect on mean blood pressure in dogs; NC=no change; assay type: functional, organism-based; conditions: Canis lupus familiaris
Canis familiaris [13] = assay: Tested for Norman sinus rhythm in dogs at a dose of 6 mg/kg Expt-1; assay type: functional, Canis lupus familiaris
Canis familiaris [14] = assay: Tested for mean blood pressure without ventricular tachycardia in dogs at a dose of 6 mg/kg Expt-2; assay type: functional, Canis lupus familiaris
Canis familiaris [15] = assay: Tested for Sustained ventricular tachycardia in dogs at a dose of 3 mg/kg Expt-2; assay type: functional, Canis lupus familiaris, Cardiac ventricle
Canis familiaris [16] = organism: Canis familiaris; assay: Relative effect on abolition of ventricular tachycardia in dogs; no abolition of VT; assay type: functional, organism-based; conditions: Canis lupus familiaris; Cardiac ventricle
Canis familiaris [17] = assay: Tested for Norman sinus rhythm in dogs at a dose of 3 mg/kg Expt-2; assay type: functional, Canis lupus familiaris
Canis familiaris [18] = assay: Tested for mean blood pressure with ventricular tachycardia in dogs at a dose of 3 mg/kg Expt-2; assay type: functional, Canis lupus familiaris
Canis familiaris [19] = organism: Canis familiaris; assay: Relative effect on slowing of ventricular tachycardia in dogs; slowing of VT; assay type: functional, organism-based; conditions: Canis lupus familiaris; Cardiac ventricle
Canis familiaris [20] = assay: Tested for Norman sinus rhythm in dogs at a dose of 3 mg/kg Expt-1; assay type: functional, Canis lupus familiaris
Canis familiaris [21] = organism: Canis familiaris; assay: Relative effect on abolition of ventricular tachycardia in dogs;abolition of VT; assay type: functional, organism-based; conditions: Canis lupus familiaris; Cardiac ventricle
Canis familiaris [22] = assay: Tested for Norman sinus rhythm in dogs at a dose of 3 mg/kg; assay type: functional, Canis lupus familiaris
Canis familiaris [23] = organism: Canis familiaris; assay: Relative effect on exacerbation of ventricular tachycardia in dogs; No exacerbation of VT; assay type: functional, organism-based; conditions: Canis lupus familiaris; Cardiac ventricle
Canis familiaris [24] = assay: Tested for mean blood pressure without ventricular tachycardia in dogs at a dose of 3 mg/kg; assay type: functional, Canis lupus familiaris
Canis familiaris [25] = assay: Tested for mean blood pressure without ventricular tachycardia in dogs at a dose of 6 mg/kg; assay type: functional, Canis lupus familiaris
Canis familiaris [26] = assay: Tested for Norman sinus rhythm in dogs at a dose of 6 mg/kg; assay type: functional, Canis lupus familiaris; set-up: unit not given beside the values
Canis familiaris [27] = assay: Relative effect on mean blood pressure in dogs; Slight 8% increase im mean BP; assay type: functional, organism-based; conditions: Canis lupus familiaris
Canis familiaris [28] = organism: Canis familiaris; assay: Relative effect on normal sinus rate in dogs;NC =no change in normal sinus rate.; assay type: functional, organism-based; conditions: Canis lupus familiaris
Canis familiaris [29] = organism: Canis familiaris; assay: Relative effect on normal sinus rate in dogs;Slight decrease; assay type: functional, organism-based; conditions: Canis lupus familiaris
Canis familiaris [30] = organism: Canis familiaris; assay: Relative effect on mean blood pressure in dogs; Moderate change in mean BP; assay type: functional, organism-based; conditions: Canis lupus familiaris
Canis familiaris [31] = organism: Canis familiaris; assay: Relative effect on normal sinus rate in dogs;Slight increase; assay type: functional, organism-based; conditions: Canis lupus familiaris
Canis familiaris [32] = organism: Canis familiaris; assay: Relative effect on abolition of ventricular tachycardia in dogs; assay type: functional, organism-based; conditions: Canis lupus familiaris; Cardiac ventricle
Canis familiaris [33] = organism: Canis familiaris; assay: Relative effect on mean blood pressure in dogs;NC=no change in mean BP; assay type: functional, organism-based; conditions: Canis lupus familiaris
Canis familiaris [34] = organism: Canis familiaris; assay: Relative effect on exacerbation of ventricular tachycardia in dogs; Exacerbation of VT present; assay type: functional, organism-based; conditions: Canis lupus familiaris; Cardiac ventricle
Canis familiaris [35] = assay: Tested for mean blood pressure without ventricular tachycardia in dogs at a dose of 3 mg/kg expt-2; assay type: functional, Canis lupus familiaris
Canis familiaris [36] = assay: Tested for Norman sinus rhythm in dogs at a dose of 3 mg/kg expt-1; assay type: functional, Canis lupus familiaris
Canis familiaris [37] = assay: Tested for Norman sinus rhythm in dogs at a dose of 3 mg/kg expt-2; assay type: functional, Canis lupus familiaris
Canis familiaris [38] = assay: Tested for mean blood pressure without ventricular tachycardia in dogs at a dose of 6 mg/kg expt-1; assay type: functional, Canis lupus familiaris
Canis familiaris [39] = assay: Tested for mean blood pressure with ventricular tachycardia in dogs at a dose of 3 mg/kg expt-2; assay type: functional, Canis lupus familiaris
Canis familiaris [40] = assay: Tested for mean blood pressure with ventricular tachycardia in dogs at a dose of 6 mg/kg expt-1; assay type: functional, Canis lupus familiaris
Canis familiaris [41] = assay: Tested for mean blood pressure without ventricular tachycardia in dogs at a dose of 3 mg/kg expt-1; assay type: functional, Canis lupus familiaris
Canis familiaris [42] = organism: Canis familiaris; assay: Relative effect on mean blood pressure in dogs;NC = no change in mean BP; assay type: functional, organism-based; conditions: Canis lupus familiaris
Canis familiaris [43] = assay: Tested for Norman sinus rhythm in dogs at a dose of 6 mg/kg expt-1; assay type: functional, Canis lupus familiaris
Canis familiaris [44] = assay: Tested for Norman sinus rhythm in dogs at a dose of 6 mg/kg expt-2; assay type: functional, Canis lupus familiaris
Canis familiaris [45] = assay: Tested for mean blood pressure with ventricular tachycardia in dogs at a dose of 6 mg/kg expt-2; assay type: functional, Canis lupus familiaris
Canis familiaris [46] = organism: Canis familiaris; assay: Relative effect on slowing of ventricular tachycardia in dogs;slowing of VT present; assay type: functional, organism-based; conditions: Canis lupus familiaris; Cardiac ventricle
Canis familiaris [47] = assay: Tested for mean blood pressure with ventricular tachycardia in dogs at a dose of 3 mg/kg expt-1; assay type: functional, Canis lupus familiaris
Canis familiaris [48] = assay: Tested for mean blood pressure without ventricular tachycardia in dogs at a dose of 6 mg/kg expt-2; assay type: functional, Canis lupus familiaris
Canis familiaris [49] = organism: Canis familiaris; assay: Relative effect on mean blood pressure in dogs; moderate increase by 16% in mean BP; assay type: functional, organism-based; conditions: Canis lupus familiaris
Canis familiaris [50] = organism: Canis familiaris; assay: Relative effect on normal sinus rate in dogs;NC=no change; assay type: functional, organism-based; conditions: Canis lupus familiaris
Canis familiaris [51] = organism: Canis familiaris; assay: Relative effect on exacerbation of ventricular tachycardia in dogs; no exacerbation of VT; assay type: functional, organism-based; conditions: Canis lupus familiaris; Cardiac ventricle
Canis familiaris [52] = organism: Canis familiaris; assay: Relative effect on abolition of ventricular tachycardia in dogs; abolition of VT; assay type: functional, organism-based; conditions: Canis lupus familiaris; Cardiac ventricle
Canis familiaris [53] = assay: Tested for mean blood pressure without ventricular tachycardia in dogs at a dose of 6 mg/kg expt-3; assay type: functional, Canis lupus familiaris
Canis familiaris [54] = assay: Tested for mean blood pressure without ventricular tachycardia in dogs at a dose of 3 mg/kg expt-3; assay type: functional, Canis lupus familiaris
Canis familiaris [55] = assay: Tested for Norman sinus rhythm in dogs at a dose of 3 mg/kg Expt-3; assay type: functional, Canis lupus familiaris

Row | SMILES | NSR (Canis familiaris [2]) | MBP (Canis familiaris [4]) | MBP (Canis familiaris [6]) | MBP (Canis familiaris [7]) | MBP (Canis familiaris [9]) | Effect (Canis familiaris [10]) | Activity (Canis familiaris [11]) | NSR (Canis familiaris [13]) | MBP (Canis familiaris [14]) | Activity (Canis familiaris [15]) | Effect (Canis familiaris [16]) | NSR (Canis familiaris [17]) | MBP (Canis familiaris [18]) | Effect (Canis familiaris [19]) | NSR (Canis familiaris [20]) | Effect (Canis familiaris [28]) | MBP (Canis familiaris [35]) | MBP (Canis familiaris [38]) | MBP (Canis familiaris [41]) | MBP (Canis familiaris [48]) | also measured
1 | OC1(O)C2C[Se]CC1CN(Cc1ccccc1)C2 | 150 | 60 | 125 | 125 | 130 | exacerbation of VT | 255 beats min-1 | 155 | 130 | 300 beats min-1 | No exacerbation | 155 | 40 | exacerbation of VT | 150 |  |  |  |  |  | Activity (Canis familiaris [1]): 320 beats min-1; MBP (Canis familiaris [3]): 70; Activity (Canis familiaris [5]): 280 beats min-1; Effect (Canis familiaris [8]): inactive; Effect (Canis familiaris [12]): inactive
2 | c1ccc(CN2CC3C[Se]CC(C3)C2)cc1 |  |  |  |  |  |  |  |  |  |  |  |  |  |  |  | No change |  |  |  |  | Effect (Canis familiaris [21]): abolition of ventricular tachycardia; NSR (Canis familiaris [22]): 160; Effect (Canis familiaris [23]): No exacerbation; MBP (Canis familiaris [24]): 126; MBP (Canis familiaris [25]): 125; NSR (Canis familiaris [26]): 160; Effect (Canis familiaris [27]): Slight
3 | c1ccc([C@H]2N[C@@H](c3ccccc3)C3C[Se]CC2C3)cc1 | 140 | 20 | 125 | 125 | 82 | exacerbation of VT | 280 beats min-1 | 145 | 80 | 270 beats min-1 |  | 150 | 30 | exacerbation of VT | 150 |  |  |  |  |  | Effect (Canis familiaris [29]): Slight; Effect (Canis familiaris [30]): mod; Effect (Canis familiaris [31]): Slight; Effect (Canis familiaris [32]): exacerbation of VT; Effect (Canis familiaris [33]): No change
4 | CCN(CC)CC(=O)Nc1c(C)cccc1C [LIDOCAINE] |  |  |  |  |  |  |  |  |  |  | inactive |  |  |  |  | inactive | 70 | 112 | 110 | 72 | Effect (Canis familiaris [34]): Active; NSR (Canis familiaris [36]): 165; NSR (Canis familiaris [37]): 150; MBP (Canis familiaris [39]): 75; MBP (Canis familiaris [40]): 40; Effect (Canis familiaris [42]): inactive; NSR (Canis familiaris [43]): 160; NSR (Canis familiaris [44]): 150; MBP (Canis familiaris [45]): 52; Effect (Canis familiaris [46]): Active; MBP (Canis familiaris [47]): 40
5 | c1ccc(CCN2CC3C[Se]CC(C3)C2)cc1 |  |  |  |  |  |  |  |  |  |  |  | 150 |  |  | 168 |  | 85 | 125 | 128 | 150 | Effect (Canis familiaris [49]): mod; Effect (Canis familiaris [50]): inactive; Effect (Canis familiaris [51]): No exacerbation; Effect (Canis familiaris [52]): abolition of ventricular tachycardia; MBP (Canis familiaris [53]): 85; MBP (Canis familiaris [54]): 150; NSR (Canis familiaris [55]): 155; NSR (Canis familiaris [26]; 6 mg/kg): 165 and 150 and 155
